Key:
[1] = target: adenosine A2B receptor (Homo sapiens (Human), UniProt P29275); test: Adenosine receptor activity assay (Table 1), A2B activity; assay type: biochemical; conditions: for Ratio: A2A activity to A2B activity (A2A/A2B); for IC50: read-out: Ave A2B cAMP IC50
[2] = target: adenosine A3 receptor (Homo sapiens (Human), UniProt P0DMS8); test: Adenosine receptor activity assay (Table 1), A3 cAMP; assay type: cell-based
[3] = target: adenosine A2A receptor (Homo sapiens (Human), UniProt P29274); test: Adenosine receptor activity assay (Table 1), A2A activity; assay type: biochemical; conditions: read-out: Ave A2A cAMP IC50
[4] = target: adenosine A1 receptor (Homo sapiens (Human), UniProt P30542); test: Adenosine receptor activity assay (Table 1), A1 cAMP; assay type: cell-based
Sequence of adenosine A1 receptor (P30542 whole entry): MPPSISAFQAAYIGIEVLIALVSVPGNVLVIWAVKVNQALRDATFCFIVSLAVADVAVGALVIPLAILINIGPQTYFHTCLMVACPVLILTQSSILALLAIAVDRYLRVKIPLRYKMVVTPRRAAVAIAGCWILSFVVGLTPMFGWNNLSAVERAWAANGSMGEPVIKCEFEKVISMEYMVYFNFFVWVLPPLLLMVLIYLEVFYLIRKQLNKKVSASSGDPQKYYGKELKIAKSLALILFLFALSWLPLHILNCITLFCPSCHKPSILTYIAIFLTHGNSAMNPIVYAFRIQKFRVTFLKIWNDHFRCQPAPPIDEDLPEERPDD

Sequence of adenosine A2B receptor (P29275 whole entry): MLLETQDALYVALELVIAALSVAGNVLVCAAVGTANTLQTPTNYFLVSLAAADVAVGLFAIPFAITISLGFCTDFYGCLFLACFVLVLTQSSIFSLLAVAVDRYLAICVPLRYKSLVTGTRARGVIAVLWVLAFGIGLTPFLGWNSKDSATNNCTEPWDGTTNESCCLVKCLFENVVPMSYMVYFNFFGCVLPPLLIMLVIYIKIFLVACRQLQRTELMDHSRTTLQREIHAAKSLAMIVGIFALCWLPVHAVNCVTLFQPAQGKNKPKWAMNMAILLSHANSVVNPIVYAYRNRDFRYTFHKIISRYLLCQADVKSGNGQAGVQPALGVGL
Sequence of adenosine A2A receptor (P29274 whole entry): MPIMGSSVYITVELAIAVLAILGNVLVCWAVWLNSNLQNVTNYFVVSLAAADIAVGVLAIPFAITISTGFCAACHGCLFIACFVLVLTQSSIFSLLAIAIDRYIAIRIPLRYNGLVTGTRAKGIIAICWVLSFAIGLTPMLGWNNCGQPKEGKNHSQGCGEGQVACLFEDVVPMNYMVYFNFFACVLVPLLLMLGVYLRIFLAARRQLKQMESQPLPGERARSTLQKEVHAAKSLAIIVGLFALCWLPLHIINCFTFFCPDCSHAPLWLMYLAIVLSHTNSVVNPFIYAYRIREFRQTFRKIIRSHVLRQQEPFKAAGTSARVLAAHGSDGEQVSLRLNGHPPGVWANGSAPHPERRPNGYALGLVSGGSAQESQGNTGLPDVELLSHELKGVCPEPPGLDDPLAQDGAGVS
Sequence of adenosine A3 receptor (P0DMS8 whole entry): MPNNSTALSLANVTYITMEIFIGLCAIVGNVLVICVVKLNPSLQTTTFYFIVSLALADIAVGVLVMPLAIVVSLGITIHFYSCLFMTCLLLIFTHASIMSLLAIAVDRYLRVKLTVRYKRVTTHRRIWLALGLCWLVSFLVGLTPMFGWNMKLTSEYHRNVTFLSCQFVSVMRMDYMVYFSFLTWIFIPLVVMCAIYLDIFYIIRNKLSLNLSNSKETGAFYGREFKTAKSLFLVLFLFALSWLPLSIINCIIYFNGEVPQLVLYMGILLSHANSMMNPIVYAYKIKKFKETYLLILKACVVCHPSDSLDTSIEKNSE

Structure (SMILES)	Ratio [1]	IC50 [1] [nM]	IC50 [2] [nM]	IC50 [3] [nM]	IC50 [4] [nM]
Cc1cc2nc(N[C@@H](C)c3ccccn3)nc(C(=O)N3CCCC3)c2s1 [Example Z244, (S)-(6-Methyl-2-((1-(pyridin-2-yl)ethyl)amino)thieno[3,2-d]pyrimidin-4-yl)(pyrrolidin-1-yl)methanone]	18.24	< 10	50 to 100	10 to 50	50 to 100
CO[C@@H]1CCN(C(=O)c2nc(N[C@@H](C)c3cncc(Cl)c3)nc3ccsc23)C1 [Example Z253, (2-(((S)-1-(5-Chloropyridin-3-yl)ethyl)amino)thieno[3,2-d]pyrimidin-4-yl)((R)-3-methoxypyrrolidin-1-yl)methanone]	10.26	10 to 50	> 500	100 to 500	> 500
CO[C@H]1CCN(C(=O)c2nc(N[C@@H](C)c3cncc(Cl)c3)nc3ccsc23)C1 [Example Z254, (2-(((S)-1-(5-Chloropyridin-3-yl)ethyl)amino)thieno[3,2-d]pyrimidin-4-yl)((S)-3-methoxypyrrolidin-1-yl)methanone]	9.38	10 to 50	> 500	100 to 500	> 500
CO[C@H]1CCN(C(=O)c2nc(N[C@@H](C)c3ccccn3)nc3ccsc23)C1 [Example Z255, ((S)-3-Methoxypyrrolidin-1-yl)(2-(((S)-1-(pyridin-2-yl)ethyl)amino)thieno[3,2-d]pyrimidin-4-yl)methanone]	1.81	10 to 50	> 500	10 to 50	> 500
C[C@H](Nc1nc(C(=O)N2CC[C@H](CO)C2)c2sccc2n1)c1cccnc1 [Example Z259, ((S)-3-(Hydroxymethyl)pyrrolidin-1-yl)(2-(((S)-1-(pyridin-3-yl)ethyl)amino)thieno[3,2-d]pyrimidin-4-yl)methanone]	31.95	10 to 50	> 500	100 to 500	> 500
C[C@H](Nc1nc(C(=O)N2CC[C@@H](CO)C2)c2sccc2n1)c1cccnc1 [Example Z260, ((R)-3-(Hydroxymethyl)pyrrolidin-1-yl)(2-(((S)-1-(pyridin-3-yl)ethyl)amino)thieno[3,2-d]pyrimidin-4-yl)methanone]	16.27	10 to 50	> 500	100 to 500	> 500
C[C@H](Nc1nc(C(=O)NCC(F)(F)F)c2sccc2n1)c1cncc(F)c1 [Example Z263, (S)-2-((1-(5-Fluoropyridin-3-yl)ethyl)amino)-N-(2,2,2-trifluoroethyl)thieno[3,2-d]pyrimidine-4-carboxamide]	9.48	10 to 50	> 500	100 to 500	> 500
COC1CN(C(=O)c2nc(N[C@@H](C)c3cncc(F)c3)nc3cc(C)sc23)C1 [Example Z268, (S)-(2-((1-(5-Fluoropyridin-3-yl)ethyl)amino)-6-methylthieno[3,2-d]pyrimidin-4-yl)(3-methoxyazetidin-1-yl)methanone]	57.63	< 10	50 to 100	50 to 100	50 to 100
C[C@H](Nc1nc(C(=O)N2CCC[C@@H]2C)c2sccc2n1)c1cncc(F)c1 [Example Z271, (2-(((S)-1-(5-Fluoropyridin-3-yl)ethyl)amino)thieno[3,2-d]pyrimidin-4-yl)((S)-2-methylpyrrolidin-1-yl)methanone]	9.24	10 to 50	> 500	100 to 500	> 500
C[C@H](Nc1nc(C(=O)N2CCC[C@H]2C)c2sccc2n1)c1cncc(F)c1 [Example Z272, (2-(((S)-1-(5-Fluoropyridin-3-yl)ethyl)amino)thieno[3,2-d]pyrimidin-4-yl)((R)-2-methylpyrrolidin-1-yl)methanone]	9.34	10 to 50	> 500	100 to 500	> 500
C[C@H](Nc1nc(C(=O)NCCO)c2sccc2n1)c1cncc(F)c1 [Example Z275, (S)-2-((1-(5-Fluoropyridin-3-yl)ethyl)amino)-N-(2-hydroxyethyl)thieno[3,2-d]pyrimidine-4-carboxamide]	24.38	< 10	> 500	100 to 500	> 500
Cc1cc2nc(N[C@@H](C)c3cncc(F)c3)nc(C(=O)N3CCC3)c2s1 [Example Z276, (S)-Azetidin-1-yl(2-((1-(5-fluoropyridin-3-yl)ethyl)amino)-6-methylthieno[3,2-d]pyrimidin-4-yl)methanone]	92.47	< 10	50 to 100	50 to 100	50 to 100
Cc1cc2nc(N[C@@H](C)c3cncc(F)c3)nc(C(=O)N3CCCC3)c2s1 [Example Z279, (S)-(2-((1-(5-Fluoropyridin-3-yl)ethyl)amino)-6-methylthieno[3,2-d]pyrimidin-4-yl)(pyrrolidin-1-yl)methanone]	86.81	< 10	50 to 100	50 to 100	50 to 100
Cc1cc2nc(N[C@@H](C)c3cncc(F)c3)nc(C(=O)NCC(F)(F)F)c2s1 [Example Z280, (S)-2-((1-(5-Fluoropyridin-3-yl)ethyl)amino)-6-methyl-N-(2,2,2-trifluoroethyl)thieno[3,2-d]pyrimidine-4-carboxamide]	24.55	< 10	50 to 100	10 to 50	10 to 50
Cc1cc2nc(N[C@@H](C)c3ccccn3)nc(C(=O)N3CCC3)c2s1 [Example Z284, (S)-Azetidin-1-yl(6-methyl-2-((1-(pyridin-2-yl)ethyl)amino)thieno[3,2-d]pyrimidin-4-yl)methanone]	56.67	< 10	50 to 100	50 to 100	50 to 100
Cc1cc2nc(N[C@@H](C)c3ccccn3)nc(C(=O)N3CC(O)C3)c2s1 [Example Z285, (S)-(3-Hydroxyazetidin-1-yl)(6-methyl-2-((1-(pyridin-2-yl)ethyl)amino)thieno[3,2-d]pyrimidin-4-yl)methanone]	51.08	< 10	50 to 100	100 to 500	50 to 100
COC1CN(C(=O)c2nc(N[C@@H](C)c3cccnc3)nc3cc(C)sc23)C1 [Example Z286, (S)-(3-Methoxyazetidin-1-yl)(6-methyl-2-((1-(pyridin-3-yl)ethyl)amino)thieno[3,2-d]pyrimidin-4-yl)methanone]	26.11	< 10	> 500	50 to 100	> 500
Cc1cc2nc(N[C@@H](C)c3ccccn3)nc(C(=O)NC[C@H](C)O)c2s1 [Example Z287, N—((S)-2-Hydroxypropyl)-6-methyl-2-(((S)-1-(pyridin-2-yl)ethyl)amino)thieno[3,2-d]pyrimidine-4-carboxamide]	23.71	10 to 50	50 to 100	100 to 500	> 500
Cc1cc2nc(N[C@@H](C)c3ccccn3)nc(C(=O)NC[C@@H](C)O)c2s1 [Example Z288, N—((R)-2-Hydroxypropyl)-6-methyl-2-(((S)-1-(pyridin-2-yl)ethyl)amino)thieno[3,2-d]pyrimidine-4-carboxamide]	35.51	< 10	50 to 100	100 to 500	> 500
C[C@H](Nc1nc(C(=O)NCCO)c2sccc2n1)c1cncc(Cl)c1 [Example Z291, (S)-2-((1-(5-Chloropyridin-3-yl)ethyl)amino)-N-(2-hydroxyethyl)thieno[3,2-d]pyrimidine-4-carboxamide]	50.12	10 to 50	> 500	> 500	50 to 100
C[C@H](O)CNC(=O)c1nc(N[C@@H](C)c2cncc(Cl)c2)nc2ccsc12 [Example Z292, 2-(((S)-1-(5-Chloropyridin-3-yl)ethyl)amino)-N—((S)-2-hydroxypropyl)thieno[3,2-d]pyrimidine-4-carboxamide]	60.59	10 to 50	50 to 100	> 500	50 to 100
C[C@H](Nc1nc(C(=O)NC[C@@H](C)O)c2sccc2n1)c1cncc(Cl)c1 [Example Z293, 2-(((S)-1-(5-Chloropyridin-3-yl)ethyl)amino)-N—((R)-2-hydroxypropyl)thieno[3,2-d]pyrimidine-4-carboxamide]	41.78	< 10	50 to 100	100 to 500	50 to 100
C[C@H](Nc1nc(C(=O)N2CC[C@@H](CO)C2)c2sccc2n1)c1cncc(F)c1 [Example Z295, (2-(((S)-1-(5-Fluoropyridin-3-yl)ethyl)amino)thieno[3,2-d]pyrimidin-4-yl)((R)-3-(hydroxymethyl)pyrrolidin-1-yl)methanone]	68.33	< 10	> 500	100 to 500	> 500
Cc1cc2nc(N[C@@H](C)c3cccnc3)nc(C(=O)N3CC(O)C3)c2s1 [Example Z299, (S)-(3-Hydroxyazetidin-1-yl)(6-methyl-2-((1-(pyridin-3-yl)ethyl)amino)thieno[3,2-d]pyrimidin-4-yl)methanone]	39.68	< 10	> 500	100 to 500	> 500
COC1CN(C(=O)c2nc(N[C@@H](C)c3ccccn3)nc3cc(C)sc23)C1 [Example Z300, (S)-(3-Methoxyazetidin-1-yl)(6-methyl-2-((1-(pyridin-2-yl)ethyl)amino)thieno[3,2-d]pyrimidin-4-yl)methanone]	21.89	< 10	50 to 100	10 to 50	50 to 100

Source: patent publication US11254686B1 (Corvus Pharmaceuticals, Inc., priority 2017, dated 2022)
